{"source": "patent US20040033972A1", "about": "“Treatment of mycobacterium tuberculosis with antisense polynucleotides” (priority 2002, published 2004)", "key": {"[1]": {"system": "M. tuberculosis", "conditions": "cited from earlier work"}, "[2]": {"target": "extracellular glutamine synthetase (Mycobacterium tuberculosis, UniProt P9WN39)", "sequence (P9WN39 2-478 limits assumed)": "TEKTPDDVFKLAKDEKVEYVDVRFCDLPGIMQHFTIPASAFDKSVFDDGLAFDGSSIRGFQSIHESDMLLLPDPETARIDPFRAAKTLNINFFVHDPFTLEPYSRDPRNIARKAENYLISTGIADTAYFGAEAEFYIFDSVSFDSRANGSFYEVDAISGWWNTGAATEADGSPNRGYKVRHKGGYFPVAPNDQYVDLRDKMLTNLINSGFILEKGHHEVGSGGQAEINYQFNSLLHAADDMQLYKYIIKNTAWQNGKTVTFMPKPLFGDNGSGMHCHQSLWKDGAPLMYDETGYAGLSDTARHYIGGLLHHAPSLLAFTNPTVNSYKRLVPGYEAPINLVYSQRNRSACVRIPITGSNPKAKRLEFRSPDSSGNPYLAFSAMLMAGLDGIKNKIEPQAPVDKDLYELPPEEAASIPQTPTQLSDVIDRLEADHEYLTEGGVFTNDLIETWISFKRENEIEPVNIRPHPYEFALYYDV", "conditions": "20 μM; cited from earlier work"}, "[3]": {"system": "poly-L-glutamate/glutamine cell wall structure", "conditions": "20 μM; cited from earlier work"}, "[4]": {"system": "M. tuberculosis Erdman"}, "[5]": {"system": "M. smegmatis 1-2c"}, "[6]": {"system": "M. smegmatis 1-2c", "assay": "microbe, parasite or virus in culture", "conditions": "Mycolicibacterium smegmatis, 12C"}, "[7]": {"system": "M. tuberculosis Erdman", "assay": "microbe, parasite or virus in culture", "conditions": "Mycobacterium tuberculosis"}, "[8]": {"system": "M. tuberculosis Erdman", "assay": "Growth of M. tuberculosis Erdman broth cultures (colony forming units)", "type": "cell-based"}}, "note": "Where two headings read alike, the source gives them in different places. Where a SMILES comes first, the peptide text is derived from it."}
{"smiles": "CS(=N)(=O)CC[C@H](N)C(=O)O", "note": "(stereo partly drawn) [L-methionine-S-sulfoximine]", "values": [{"measurement": "inhibition of bacterial growth", "setting": "[1]; 2 μM", "result": "1.5-2 log units"}, {"measurement": "reduction of bacterial growth", "setting": "[1]; 20 μM", "result": "≥ 2.5", "unit": "log units"}, {"measurement": "reduction of extracellular glutamine synthetase activity", "setting": "[2]", "result": 80, "unit": "%"}, {"measurement": "reduction of the amount of the poly-L-glutamate/glutamine cell wall structure", "setting": "[3]", "result": 93, "unit": "%"}]}
{"smiles": "CC(C)C[C@@H]1NC(=O)[C@@H](Cc2ccccc2)NC(=O)[C@H](CCN)NC(=O)[C@@H](NC(=O)[C@H](CCN)NC(=O)[C@@H](N)[C@@H](C)O)CCNC(=O)[C@H]([C@@H](C)O)NC(=O)[C@H](CCN)NC(=O)[C@H](CCN)NC1=O", "note": "[polymyxin B nonapeptide] (HELM PEPTIDE1{T.[Dab].[Dab].[Dab].[dF].L.[Dab].[Dab].T}$PEPTIDE1,PEPTIDE1,3:R3-9:R2$$$V2.0; N-terminus assumed)", "values": [{"measurement": "MIC", "setting": "[4]", "result": "~5", "unit": "µg/mL"}, {"measurement": "MIC", "setting": "[5]", "result": "~5", "unit": "µg/mL"}]}
{"smiles": "CC[C@@H](CO)NCCN[C@@H](CC)CO", "note": "[ethambutol]", "values": [{"measurement": "MIC", "setting": "[6]", "result": "~0.01", "unit": "µg/mL"}, {"measurement": "MIC", "setting": "[7]", "result": "~5", "unit": "µg/mL"}]}
{"smiles": "NCC[C@H](O)C(=O)N[C@@H]1C[C@H](N)[C@@H](O[C@H]2O[C@H](CN)[C@@H](O)[C@H](O)[C@H]2O)[C@H](O)[C@H]1O[C@H]1O[C@H](CO)[C@@H](O)[C@H](N)[C@H]1O", "note": "[amikacin]", "values": [{"measurement": "antibacterial effect of free amikacin", "setting": "[8]; 1 μM", "result": "bacteriostatic"}, {"measurement": "antibacterial effect of free amikacin", "setting": "[8]; 5.8 μg per ml (10 μM)", "result": "strongly bactericidal"}]}
